For experiment [1] the following is noted: known polyhistidine binding domain, background statement; read-out: molar dissociation constant for nickel; cited from earlier work.
Experiment [2] is described as follows: Binding strength measured by surface plasmon resonance (BIACOR 3000, Sensor Chip NTA). To be noted: read-out: Kd (dissociation constant for nickel), SPR.

Like-named read-outs stand apart in the source and are kept apart here.

With YSHHHHHHLAGTA [C26], the results for the Kd in experiment [1] and in experiment [2] were 0.023 nM and roughly 0.023 nM, respectively.
